# Measured values published in publication PMC10920779, “Targeting P2Y14R protects against necroptosis of intestinal epithelial cells through PKA/CREB/RIPK1 axis in ulcerative colitis” (Nature Communications, 2024).
# Several values for one entry are separate records, joined by “and”; a condition that tells them apart may be missing. Equal values may be shown once. Entries after “also recorded” stand apart in the source; their conditions may differ.
# Experiments:
# Format in all cases: in vivo, mouse
# [1] = tested on: MLKL, PKA, CREB phosphorylation; test: Immunoblotting of p-MLKL, p-PKA, p-CREB in colon tissues/IECs of DSS-treated mice; conditions: for Activation of cAMP/PKA/CREB pathway (p-PKA, p-CREB): DSS-induced colitis mice; for Necroptosis of IECs (p-MLKL level and TEM imaging): high-dose, 20 μM, during DSS feeding
# Protocol: The data represent the mean ± SD for c, e, and h–l, the data represent the mean ± SEM for b.
# Colon tissues derived from the euthanized by carbon dioxide inhalation mice were opened longitudinally and washed in pre-cooling PBS for three times. Then, the tissues were cut into 3 mm^2 pieces and incubated with 5 mM EDTA solution in PBS on a constant temperature shaker at 200 rpm for 25 min at 37°C. Then, let it stand at room temperature for 30 seconds and collected the supernatant. Next, repeated the above process once. Supernatants from the above step were combined and centrifuged at 500 g for 8 min. Abandon the supernatants and obtain IECs.
# Tissues and cells were lysed using RIPA lysis buffer (Beyotime Biotechnology) containing protease and phosphatase inhibitor, homogenated, and centrifuged. The protein concentration was determined by BCA protein assay (Beyotime Biotechnology). Equal concentrations of proteins were separated in a 10% SDS-PAGE and transferred to PVDF membrane. The membrane was blocked using 5% milk in TBST, probed with primary antibody, RIPK1 (17519-1-AP, Proteintech, 1:1000), MLKL (GTX107538-100, GeneTex, 1:1000), RIPK3 (17563-1-AP, Proteintech, 1:1000), p-MLKL (EPR9514, Abcam, 1:1000), PKA (bs-0520R, Bioss, 1:1000), p-PKA (#9621, Cell signaling, 1:1000), CREB (AF6188, Affinity, 1:1000), p-CREB (AF3189, Affinity, 1:1000), P2Y14R (bs-12028R, Bioss, 1:1000), GSDMD (ab209845, Abcam, 1:1000), Caspase1 p20 (bs-10442R, Bioss, 1:1000), Bcl-2 (bs-0032R, Bioss, 1:1000), Bax (AF0120, Affinity, 1:1000), Caspase-3 p-17 (Cell Signaling Technology, #9664, 1:1000), β-actin (bs-0061R, Bioss, 1:1000), GAPDH (BS-2188R, Bioss, 1:1000) and corresponding HRP-conjugated antibodies Goat Anti-Rabbit IgG H&L Antibody (bioss, Bs-0295G, 1:8000) or Goat Anti-Mouse IgG H&L Antibody (bioss, Bs-0296G, 1:8000). Densitometry was quantified using ImageJ software.
# [2] = tested on: CREB binding to Ripk1 promoter; test: ChIP-qPCR with anti-CREB on Ripk1 gene promoter in IECs of experimental colitis mice; conditions: for CREB binding Ripk1 promoter: DSS-treated mice, Figure 7j; for Binding between CREB and Ripk1 promoter (ChIP): IECs of DSS-induced colitis mice
# Protocol: Total RNA was extracted from cells or colonic tissues using Trizol (Thermo) under the manufacturer’s instructions. First strand cDNA was synthesized using the PrimeScript RT Reagent Kit (480, Abm). SYBR Green Master Mix reagents (Q331-02, Vazyme) and primer mixtures (Table S1) were used for the real-time PCR. The ChIP assays were performed using EZ ChIP kit (17-371, Millipore). The procedure was as described in the kit provided by the manufacturer. Briefly, isolated IECs were fixed by 1% formaldehyde, and fragmented by sonication. CREB was then used for immunoprecipitation. After washing and reverse-crosslinking, the precipitated DNA was amplified by primers and quantified by the qPCR. Primer sequences can be found in Supplementary Table 1.
# [3] = tested on: DSS-induced colitis in P2Y14R△IEC mice; test: DSS-induced colitis in P2Y14R△IEC mice treated with HDL-16 or PPTN; parameters: DAI: scale not given here; conditions: for Weight loss, diarrhea, rectal bleeding, mucosal barrier injury, inflammatory cell infiltration in P2Y14R△IEC mice / p-MLKL in P2Y14R△IEC mice (western blot): DSS-fed P2Y14R△IEC mice; for p-MLKL in P2Y14R△IEC mice (western blot): colon tissues; for DAI / Weight: P2Y14R fl/fl vil-cre mice + DSS; for Improvement of DSS colitis in P2Y14R△IEC mice: daily administration, DSS feeding P2Y14R△IEC mice
# Description: Male, 7-8-week-old, P2Y14R^fl/fl Vil-cre (P2Y14R^∆IEC), P2Y14R^fl/fl Lyz2-cre and WT mice with C57BL/6 J background were used to establish experimental (acute) colitis model. P2Y14R^fl/fl C57BL/6 J mice were used as control for P2Y14R^fl/fl Vil-cre (P2Y14R^∆IEC) and P2Y14R^fl/fl Lyz2-cre mice. WT C57BL/6 J mice were used for the pharmacological study of HDL-16. Colitis was induced by dextran sodium sulfate (DSS; 36-50 kDa; 3% w/v; MP Biomedicals, Solon, Ohio, USA), added to the drinking water ad libitum for 7 days. Control mice received standard drinking water. The Disease Activity Index (DAI) was evaluated daily as described previously. After 7 days of DSS treatment, mice were euthanized by carbon dioxide inhalation and the colons were measured and then processed for histological analyses, homogenized to extract protein or RNA.
# The DSS group and the P2Y14R^△IEC + DSS group were rectally administered with 100 μl vehicle (saline with 0.1% DMSO). The low-dose group of mice was given 10 μM HDL-16, 100 μl per mouse, while the high-dose group was given 20 μM HDL-16, 100 μl per mouse. […]
# immunoblotting with corresponding antibodies in the IECs from DSS treated mice with HDL-16 or […]
# the entire experimental period. d Body weight change and disease activity index evaluation of mice change during the disease process (n = 6 mice per group). e Effects of P2Y14R antagonists on P2Y14R△IEC mice mucosal barrier function as measured by serum levels of FITC-dextran based on intestinal permeability methods (n = 6 mice per group). f The length of colons from mice 7 days after DSS treatment (n = 6 mice per group). g The H&E staining in the colon tissues of DSS-treated mice (Scale bar = 200 μm). h The immunofluorescent images of colon tissues stained with Claudin-1, Occludin and ZO-1, the principal components of tight junction (Scale bar = 200 μm). i Phosphorylation MLKL as well as its protein levels were analyzed by immunoblotting with corresponding antibodies in colon tissues (n = 5 mice per group). The data represent the mean ± SD for b, e, f and i, the data represent the mean ± SEM for d. The p-values were determined by One-way analysis of variance (ANOVA) with Tukey multiple comparison test for e, f, i, and two-way analysis of variance (ANOVA) with Šídák's multiple comparisons test for b and d. For a, g and h, […]
# [4] = DSS-treated mice, group -H (high dose), Figure 7h
# [5] = DSS-treated mice, group -L (low dose), Figure 7h
# [6] = HDL-16-H (high dose), Day 1, individual mice
# [7] = HDL-16-H (high dose), Day 2, individual mice
# [8] = HDL-16-H (high dose), Day 3, individual mice
# [9] = HDL-16-H (high dose), Day 4, individual mice
# [10] = HDL-16-H (high dose), Day 5, individual mice
# [11] = HDL-16-H (high dose), Day 6, individual mice
# [12] = HDL-16-H (high dose), Day 7, individual mice
# [13] = HDL-16-L (low dose), Day 1, individual mice
# [14] = HDL-16-L (low dose), Day 2, individual mice
compound,measurement,setting,value
Brc1ccc(NCc2nc3ccccc3o2)cc1 [HDL-16],"Activation of cAMP/PKA/CREB pathway (p-PKA, p-CREB)",[1],significantly increased the level of p-PKA and p-CREB; also recorded: upregulated the activation of the cAMP/PKA/CREB pathway
same,P-MLKL/MLKL,[1]; [4],1.521 and 1.265 and 1.621 and 1.356 and 1.5395
same,P-PKA/PKA,[1]; [4],1.707 and 1.759 and 1.709 and 1.416 and 2.236
same,p-CREB/CREB,[1]; [4],1.095 and 0.9798 and 1.543 and 0.8826 and 0.8002
same,P-MLKL/MLKL,[1]; [5],1.7141 and 1.386 and 1.7276 and 1.656 and 1.549
same,P-PKA/PKA,[1]; [5],1.542 and 1.79 and 2.009 and 1.5655 and 1.809
same,p-CREB/CREB,[1]; [5],0.8983 and 0.8748 and 1.433 and 0.9557 and 0.9121
same,P-MLKL/MLKL,"[1]; P2Y14R△IEC mice + DSS + HDL-16-H (high dose), individual replicates",1.288 and 1.248 and 1.394 and 1.076 and 1.4285
same,P-MLKL/MLKL,"[1]; P2Y14R△IEC mice + DSS + HDL-16-L (low dose), individual replicates",1.279 and 1.445 and 1.246 and 1.195 and 1.182
same,Necroptosis of IECs (p-MLKL level and TEM imaging),[1],prominently suppression in necroptosis
same,CREB binding Ripk1 promoter,[2]; group -H (high dose),68.32% and 67.71% and 73.03%
same,CREB binding Ripk1 promoter,[2]; group -L (low dose),52.80% and 57.62% and 56.66%
same,Binding between CREB and Ripk1 promoter (ChIP),[2],promoted the binding between CREB and Ripk1 promoter
same,"Weight loss, diarrhea, rectal bleeding, mucosal barrier injury, inflammatory cell infiltration in P2Y14R△IEC mice",[3],did not influence DSS-fed induced weight loss
same,p-MLKL in P2Y14R△IEC mice (western blot),[3],did not affect DSS-induced upregulation of p-MLKL
same,DAI,[3]; [6],0
same,Weight,[3]; [6],100%
same,DAI,[3]; [7],0
same,Weight,[3]; [7],100%
same,DAI,[3]; [8],0 (5×) and 1
same,Weight,[3]; [8],95% (2×) and 100% (4×)
same,DAI,[3]; [9],1 (5×) and 0
same,Weight,[3]; [9],95% (3×) and 100% (2×) and 96%
same,DAI,[3]; [10],1 (2×) and 0 and 4 (2×) and 2
same,Weight,[3]; [10],91% (2×) and 95% (2×) and 100% and 96%
same,DAI,[3]; [11],1 (3×) and 0 and 4 and 6
same,Weight,[3]; [11],91% (3×) and 95% (2×) and 100%
same,DAI,[3]; [12],1 (2×) and 0 and 2 and 6 and 8
same,Weight,[3]; [12],91% (4×) and 95% and 100%
same,DAI,[3]; [13],0
same,Weight,[3]; [13],100%
same,DAI,[3]; [14],0 (5×) and 1
same,Weight,[3]; [14],100%
same,Weight,"[3]; HDL-16-L (low dose), Day 3, individual mice",100% (5×) and 96%
same,Weight,"[3]; HDL-16-L (low dose), Day 4, individual mice",95% (4×) and 100% and 96%
same,Weight,"[3]; HDL-16-L (low dose), Day 5, individual mice",95% (4×) and 100% and 91%
same,Weight,"[3]; HDL-16-L (low dose), Day 6, individual mice",95% (2×) and 100% and 91% and 90% (2×)
same,Weight,"[3]; HDL-16-L (low dose), Day 7, individual mice",95% (3×) and 100% and 91% and 90%
same,Improvement of DSS colitis in P2Y14R△IEC mice,[3],barely improvement
"O=C(O)c1cc(-c2ccc(C3CCNCC3)cc2)c2ccc(-c3ccc(C(F)(F)F)cc3)cc2c1 [PPTN, reference compound]","Activation of cAMP/PKA/CREB pathway (p-PKA, p-CREB)",[1],significantly increased the level of p-PKA and p-CREB
same,P-MLKL/MLKL,"[1]; DSS-treated mice, Figure 7h",1.3877 and 1.2109 and 1.586 and 1.421 and 1.9357
same,P-PKA/PKA,"[1]; DSS-treated mice, Figure 7h",2.217 and 1.679 and 2.34 and 2.232 and 2.623
same,p-CREB/CREB,"[1]; DSS-treated mice, Figure 7h",0.8109 and 1.08 and 1.258 and 1.076 and 0.8633
same,P-MLKL/MLKL,"[1]; P2Y14R△IEC mice + DSS + PPTN, individual replicates",1.205 and 1.2332 and 1.252 and 1.224 and 1.39
same,Necroptosis of IECs (p-MLKL level and TEM imaging),[1],prominently suppression in necroptosis
same,CREB binding Ripk1 promoter,[2],59.41% and 55.99% and 63.77%
same,Binding between CREB and Ripk1 promoter (ChIP),[2],promoted the binding between CREB and Ripk1 promoter
same,"Weight loss, diarrhea, rectal bleeding, mucosal barrier injury, inflammatory cell infiltration in P2Y14R△IEC mice",[3],did not influence DSS-fed induced weight loss
same,p-MLKL in P2Y14R△IEC mice (western blot),[3],did not affect DSS-induced upregulation of p-MLKL
same,Colon length,"[3]; P2Y14R fl/fl vil-cre mice + DSS + PPTN, individual mice",7 cm and 5.4 cm and 6.3 cm and 5.6 cm and 5.8 cm and 6 cm
same,Improvement of DSS colitis in P2Y14R△IEC mice,[3],barely improvement
